Experimental data: patent publication US11192893B2, “Pyrazoloquinazolinone antitumor agents” (The Rockefeller University, priority 2017, dated 2021)

Tested on: Hedgehog pathway activity
Assay: Shh-Light luciferase reporter assay of Hedgehog pathway activity (Shh-Light2 cells, SAG-stimulated)
Format: cell-based
Details: for activity at 2 µM: 2 μM compound, read-out: SHH-light % residual @ 2 μM; for activity at 2 µM / activity at 20 µM: SAG 500 nM; for activity at 20 µM: 20 μM compound, read-out: SHH-light % residual @ 20 μM; for IC50: Table 2, SAG 500 nM, 28-32 hr treatment, read-out: Shh-light IC50
Procedure: To examine the inhibition of dynein 2 in cell-based assays, an established luciferase reporter-based cellular assay of Hedgehog pathway activity was employed [Taipale et al., Nature. 2000; 406(6799): 1005-9]. Signaling in this pathway depends on the function of dynein 2. In this setting, expression of luciferase driven by Hedgehog pathway activity was inhibited by compound 5 with an IC50 value of 0.9±0.5 μM. […] The potencies of these compounds in this cell-based assay match the rank-order of dynein 2 inhibition in vitro. In these assays, Hedgehog pathway activity was stimulated using the Synthetic Agonist of Smoothened (SAG). This compound competes with many Hedgehog pathway inhibitors for binding to Smoothened, a key node in the signaling pathway.
SHH-Light Assay (Steinman et al. eLife 2017; 6:e25174.)
NIH-3T3 cells stably expressing a luciferase reporter downstream of a Gli binding site (Shh-Light2 cells, RRID: CVCL_2721) were maintained in DMEM with 10% bovine calf serum (BCS). Cells were seeded at a density of 30,000 cells/well in 96-well tissue culture-treated plates (Corning, cat #353072) in 100 μL in DMEM+10% BCS, and incubated for 48 hr (Taipale et al., 2000). Wells were washed briefly with PBS. Next […] of low serum media (DMEM+0.5% BCS) containing smoothened agonist (SAG, 500 nM), and either solvent control (0.2% DMSO) or test compound (serial three-fold dilutions of each inhibitor starting from 20 μM) were added to the wells. After 28-32 hr of inhibitor treatment, cells were washed with 50 μL PBS and lysed for >30 min in 30 μL Passive Lysis Buffer (Promega Dual Luciferase kit, cat E1910). 5 uL of each lysate was transferred to white, solid-bottom 96-well plates (Greiner, cat #655075), followed by rapid addition (within 30 s) of 30 μL of Luciferase Assay Reagent using a multichannel pipette. Luminescence for each condition was read using a Synergy Neo plate reader (5 s integration time per well). Cell line identity was confirmed by measurement of the degree of response to Hedgehog pathway stimulation by the synthetic agonist SAG and using previously published values from our groups and others as references (Firestone et al., 2012; Hyman et al., 2009).

Compound `N#Cc1ccc2[nH]c3c(C#N)c(C4(c5ccc(Cl)cc5)CC4)nn3c(=O)c2c1` [Example 10, 2-[1-(4-Chlorophenyl)cyclopropyl]-9-oxo-4H-pyrazolo[5,1-b]quinazoline-3,7-dicarbonitrile] has an activity at 2 µM of 70.1% and an activity at 20 µM of 10%.

In the case of `N#Cc1c(C2(c3ccc(Cl)cc3)CC2)nn2c(=O)c3cc(C(F)(F)F)ccc3[nH]c12` [Example 11, 2-[1-(4-Chlorophenyl)cyclopropyl]-9-oxo-7-(trifluoromethyl)-4H-pyrazolo[5,1-b]quinazoline-3-carbonitrile], the activity at 2 µM is reported as 17.7%, the activity at 20 µM is reported as -4.1% and the IC50 is reported as 730 nM.

`N#Cc1c(C2CCC(c3ccc(Cl)cc3)CC2)nn2c(=O)c3cc(C4CC4)ccc3[nH]c12` (stereo not drawn) [Example 13, 2-[4-(4-Chlorophenyl)cyclohexyl]-7-cyclopropyl-9-oxo-4H-pyrazolo[5,1-b]quinazoline-3-carbonitrile] showed an activity at 2 µM of -3.1%, an activity at 20 µM of -3.6% and an IC50 of 340 nM.

`N#Cc1c(C2(c3ccc(Cl)cc3)CC2)nn2c(=O)c3cc(C4CC4)ccc3[nH]c12` [Example 14, 2-[1-(4-Chlorophenyl)cyclopropyl]-7-cyclopropyl-9-oxo-4H-pyrazolo[5,1-b]quinazoline-3-carbonitrile] was tested, and the activity at 2 µM was -2.3%, the activity at 20 µM was -1.8% and the IC50 was 470 nM.

Work on `N#Cc1c(C2CCC(c3ccc(Cl)cc3)CC2)nn2c(=O)c3cc(C(F)(F)F)ccc3[nH]c12` (stereo not drawn) [Example 15, 2-[4-(4-Chlorophenyl)cyclohexyl]-9-oxo-7-(trifluoromethyl)-4H-pyrazolo[5,1-b]quinazoline-3-carbonitrile] yielded an activity at 2 µM of -3.1%, an activity at 20 µM of -4% and an IC50 of 320 nM.

`N#Cc1c(C2CCN(c3ccc(Cl)cc3)CC2)nn2c(=O)c3cc(C(F)(F)F)ccc3[nH]c12` [Example 16, 2-[1-(4-Chlorophenyl)-4-piperidyl]-9-oxo-7-(trifluoromethyl)-4H-pyrazolo[5,1-b]quinazoline-3-carbonitrile] showed an activity at 2 µM of 33.7% and an activity at 20 µM of -4.1%.

For `N#Cc1c(C2CCC(c3ccc(Cl)cc3)CC2)nn2c(=O)c3cc(Cl)ccc3[nH]c12` (stereo not drawn) [Example 17, 7-Chloro-2-[4-(4-chlorophenyl)cyclohexyl]-9-oxo-4H-pyrazolo[5,1-b]quinazoline-3-carbonitrile], the activity at 2 µM was -2.3%, the activity at 20 µM was -3.9% and the IC50 was 600 nM.

`N#Cc1c(C2(c3ccc(Cl)cc3)CC2)nn2c(=O)c3cc(Cl)ccc3[nH]c12` [Example 18, 7-Chloro-2-[1-(4-chlorophenyl)cyclopropyl]-9-oxo-4H-pyrazolo[5,1-b]quinazoline-3-carbonitrile] showed an activity at 2 µM of -0.5%, an activity at 20 µM of 2.8% and an IC50 of 760 nM.

`N#Cc1c(C2(c3ccc(Cl)cc3)CC2)nn2c(=O)c3cc(F)ccc3[nH]c12` [Example 19, 2-[1-(4-Chlorophenyl)cyclopropyl]-7-fluoro-9-oxo-4H-pyrazolo[5,1-b]quinazoline-3-carbonitrile] gave an activity at 2 µM of 1.4%, an activity at 20 µM of -0.4% and an IC50 of 1600 nM.

For `N#Cc1c(N2CCC(c3ccc(Cl)cc3)CC2)nn2c(=O)c3cc(Cl)ccc3[nH]c12` [Example 20, 7-Chloro-2-[4-(4-chlorophenyl)-1-piperidyl]-9-oxo-4H-pyrazolo[5,1-b]quinazoline-3-carbonitrile], the activity at 2 µM was -2.5%, the activity at 20 µM was -3.1% and the IC50 was 330 nM.

`N#Cc1c(C2CCN(c3ccc(Cl)cc3)CC2)nn2c(=O)c3cc(Cl)ccc3[nH]c12` [Example 21, 7-Chloro-2-[1-(4-chlorophenyl)-4-piperidyl]-9-oxo-4H-pyrazolo[5,1-b]quinazoline-3-carbonitrile] was tested, and the activity at 2 µM was -2% and the activity at 20 µM was -2.6%.

With `N#Cc1c(C2CCC(c3ccc(Cl)cc3)CC2)nn2c(=O)c3cc(Br)ccc3[nH]c12` (stereo not drawn) [Example 22, 7-Bromo-2-[4-(4-chlorophenyl)cyclohexyl]-9-oxo-4H-pyrazolo[5,1-b]quinazoline-3-carbonitrile] the activity at 2 µM was -2.9%, the activity at 20 µM was -2.8% and the IC50 was 670 nM.

For `N#Cc1c(OC2CCN(c3ncc(Cl)cn3)CC2)nn2c(=O)c3cc(Cl)ccc3[nH]c12` [Example 23, 7-Chloro-2-[[1-(5-chloropyrimidin-2-yl)-4-piperidyl]oxy]-9-oxo-4H-pyrazolo[5,1-b]quinazoline-3-carbonitrile], the activity at 2 µM was 8.2% and the activity at 20 µM was -2.9%.

Work on `N#Cc1c(OC2CCN(C(=O)c3ccc(Cl)cc3)CC2)nn2c(=O)c3cc(Cl)ccc3[nH]c12` [Example 24, 7-Chloro-2-[[1-(4-chlorobenzoyl)-4-piperidyl]oxy]-9-oxo-4H-pyrazolo[5,1-b]quinazoline-3-carbonitrile] yielded an activity at 2 µM of 72.4% and an activity at 20 µM of 1.6%.

With `N#Cc1c(OC2CCN(c3ccc(Cl)cn3)CC2)nn2c(=O)c3cc(Cl)ccc3[nH]c12` [Example 25, 7-Chloro-2-[[1-(5-chloro-2-pyridyl)-4-piperidyl]oxy]-9-oxo-4H-pyrazolo[5,1-b]quinazoline-3-carbonitrile] the activity at 2 µM was 41.7% and the activity at 20 µM was -3.8%.

With `NC(=O)c1c(C2CCC(c3ccc(Cl)cc3)CC2)nn2c(=O)c3ccccc3[nH]c12` (stereo not drawn) [Example 26, 2-[4-(4-Chlorophenyl)cyclohexyl]-9-oxo-4H-pyrazolo[5,1-b]quinazoline-3-carboxamide] the activity at 2 µM was 68.8% and the activity at 20 µM was -4.5%.

`NC(=O)c1c(CCCOc2ccc(Cl)cc2)nn2c(=O)c3ccccc3[nH]c12` [Example 28, 2-[3-(4-Chlorophenoxy)propyl]-9-oxo-4H-pyrazolo[5,1-b]quinazoline-3-carboxamide] gave an activity at 2 µM of 68.9% and an activity at 20 µM of 40.3%.

Work on `NC(=O)c1c(C2(c3ccc(Cl)cc3)CC2)nn2c(=O)c3ccccc3[nH]c12` [Example 30, 2-[1-(4-Chlorophenyl)cyclopropyl]-9-oxo-4H-pyrazolo[5,1-b]quinazoline-3-carboxamide] yielded an activity at 2 µM of 101% and an activity at 20 µM of 22.1%.

For `NC(=O)c1c(-c2ccc(Cl)cc2Cl)nn2c(=O)c3ccccc3[nH]c12` [Example 32, 2-(2,4-Dichlorophenyl)-9-oxo-4H-pyrazolo[5,1-b]quinazoline-3-carboxamide], the activity at 20 µM was 57.5%.

In the case of `N#Cc1c(-c2ccc(Cl)cc2Cl)nn2c(=O)c3ccccc3[nH]c12` [Example 33, 2-(2,4-Dichlorophenyl)-9-oxo-4H-pyrazolo[5,1-b]quinazoline-3-carbonitrile], the activity at 20 µM is reported as -3.6% and the IC50 is reported as 2000 nM.

With `NC(=O)c1c(-c2ccc(Cl)cc2Cl)nn2c(=O)c3ccc(Cl)cc3[nH]c12` [Example 34, 6-Chloro-2-(2,4-dichlorophenyl)-9-oxo-4H-pyrazolo[5,1-b]quinazoline-3-carboxamide] the activity at 20 µM was -3.4% and the IC50 was 3600 nM.

Work on `N#Cc1c(-c2ccc(Cl)cc2Cl)nn2c(=O)c3ccc(Cl)cc3[nH]c12` [Example 35, 6-Chloro-2-(2,4-dichlorophenyl)-9-oxo-4H-pyrazolo[5,1-b]quinazoline-3-carbonitrile] yielded an IC50 of 2100 nM.

`COc1cccc2c(=O)n3nc(-c4ccc(Cl)cc4Cl)c(C#N)c3[nH]c12` [Example 36, 2-(2,4-Dichlorophenyl)-5-methoxy-9-oxo-4H-pyrazolo[5,1-b]quinazoline-3-carbonitrile] showed an IC50 of 10000 nM.

`COc1cccc2[nH]c3c(C#N)c(-c4ccc(Cl)cc4Cl)nn3c(=O)c12` [Example 37, 2-(2,4-Dichlorophenyl)-8-methoxy-9-oxo-4H-pyrazolo[5,1-b]quinazoline-3-carbonitrile] showed an activity at 2 µM of 100% and an activity at 20 µM of 18%.

In the case of `COc1c(Cl)ccc2c(=O)n3nc(-c4ccc(Cl)cc4Cl)c(C#N)c3[nH]c12` [Example 38, 6-Chloro-2-(2,4-dichlorophenyl)-5-methoxy-9-oxo-4H-pyrazolo[5,1-b]quinazoline-3-carbonitrile], the activity at 2 µM is reported as 74%, the activity at 20 µM is reported as 19% and the IC50 is reported as 2000 nM.

In the case of `COc1ccc2[nH]c3c(C(N)=O)c(-c4ccc(Cl)cc4Cl)nn3c(=O)c2c1` [Example 39, 2-(2,4-Dichlorophenyl)-7-methoxy-9-oxo-4H-pyrazolo[5,1-b]quinazoline-3-carboxamide], the activity at 20 µM is reported as 121% and the IC50 is reported as 13000 nM.

Work on `COc1ccc2[nH]c3c(C#N)c(-c4ccc(Cl)cc4Cl)nn3c(=O)c2c1` [Example 40, 2-(2,4-Dichlorophenyl)-7-methoxy-9-oxo-4H-pyrazolo[5,1-b]quinazoline-3-carbonitrile] yielded an activity at 2 µM of 37%, an activity at 20 µM of 14% and an IC50 of 594 nM.

Work on `NC(=O)c1c(COc2ccc(Cl)cc2)nn2c(=O)c3ccccc3[nH]c12` [Example 41, 2-[(4-Chlorophenoxy)methyl]-9-oxo-4H-pyrazolo[5,1-b]quinazoline-3-carboxamide] yielded an activity at 2 µM of 73.7%.
